Measurements as given in patent publication US20260240854A1, “COMBINATIONS OF KRAS INHIBITOR AND ATR INHIBITOR FOR THE TREATMENT OF CANCER” (ASTRAZENECA AB, priority 2023, published 2026).

System: CT26^G12C murine colon carcinoma cells
Assay: Anti-tumor study, CT26^G12C tumors grown subcutaneously in immunocompetent BALB/c mice
Assay type: in vivo
Conditions: for Survival rate compared to the control group / Tumor return: Example 1, study end day 54
Procedure: All pathogen-free animals used in the studies below were housed in a controlled, pathogen-free environment with the following conditions: temperature (19-23° C.), humidity (55% 10%), photoperiod (12 h light/dark cycle), and air exchange. Animals were housed in individually vented cages, with food and water provided ad libitum.
Following testing materials were used for the preclinical, in vivo studies below: vehicle (0.5% HPMC/0.1% Tween 80), AZD4625 (0.5% HPMC/0.1% Tween 80), Compound of Formula IV (0.5% HPMC/0.1% Tween 80) and AZD6738 (10% DMSO/40% PG/50% WFI). For the monotherapies, the vehicle and the inhibitors were dosed orally in a volume of 0.05-0.1 mL/10 g. For the combination therapies, AZD4625 or Compound of Formula IV were dosed 4 or 2 hours after the AM dose of AZD6738.
Tumors were measured three times a week by caliper and the volumes were calculated using elliptical formula (pi/6×width×width×length). Animal bodyweight and tumor condition were also recorded for the duration of the study. Subject mice remained on study until tumor size reached 1.5 cm^3 for anti-tumor studies and 0.7 cm^3 for the rechallenge study, clinical signs were observed, or until the study end date.
(§1) For the study, CT26^G12C murine colon carcinoma cells, engineered to express the KRAS^G12C mutation, were grown subcutaneously in BALB/c mice with an intact immune system. To prepare the subject mice, 5×10^5 and 5×10^4 CT26^G12C (G12C clone P5E6) cells were implanted subcutaneously into the right flank of female BALB/c mice (Envigo UK, Strain ID: HSD-162) or female nude-Foxn1nu mice (Envigo UK, Strain ID: HSD-069), respectively. Once a mean volume of approximately 0.2 cm^3 tumor formed, subject mice were randomized into relevant treatment and control groups and treated with vehicle control, AZD4625 or AZD6738 in monotherapy, or in combination therapy for 4 weeks. AZD4625 was dosed daily and AZD6738 was dosed twice daily on a 7 day-on, 7 day-off schedules for the treatment period (FIG. 1A). Tumor growth and bodyweights of animals were monitored during and post-treatment. Subject mice remained on study until tumor size reached 1.5 cm^3, clinical signs were observed, or to the study end date (day 54).
as §1, with “vehicle control, AZD4625, Compound of Formula IV, or AZD6738” for “vehicle control, AZD4625 or AZD6738”, “monotherapy, or AZD4625 and AZD6738 or Compound of Formula IV and AZD6738 in combination” for “monotherapy, or in combination”, “weeks. AZD4625 and Compound of Formula IV were dosed daily” for “weeks. AZD4625 was dosed daily”, “period (FIG. 2A). Tumor growth” for “period (FIG. 1A). Tumor growth”, “study end date. Mice in the AZD4625 monotherapy and combination groups were monitored up to 65 days post-implant while mice in the Compound of Formula IV monotherapy and combination groups were monitored up to 119 days post-implant.” for “study end date (day 54).”
CT26^G12C murine colon carcinoma cells were grown subcutaneously in BALB/c mice with an intact immune system as described in Examples 1 and 2. […] Tumor growth and body weights of animals were monitored during and post-treatment. Subject mice remained on study until tumor size reached 1.5 cm^3, clinical signs were observed, or to the study end.

[1] = Example 5, 4 weeks treatment, compared to vehicle or to KRAS^G12C inhibitor monotherapy, FIG. 5A
[2] = Example 1, 4 weeks oral treatment, compared to control group, FIG. 1B
[3] = Example 2, 4 weeks oral treatment, FIG. 2B

SMILES	Tumor return after drug cessation (Example 5)	Tumor growth response [1]	Survival rates (Example 5, FIG. 5B)	Tumor growth response [2]	Survival rate compared to the control group	Tumor return	Tumor growth response [3]	Tumors returned after drug cessation (Example 2, monitored up to 119 days post-implant)
C=CC(=O)N1CCN(c2nc(=O)n(-c3c(C)ccnc3C(C)C)c3nc(-c4c(O)cccc4F)c(F)cc23)[C@@H](C)C1 (atropisomer, axis not shown) [sotorasib, reference compound]	most tumors returning after drug cessation	initial tumor growth delay	increased survival rates					
C=CC(=O)N1C[C@@H]2CCOc3c(Cl)c(-c4c(O)cccc4F)c(F)c4ncnc(c34)N2C[C@H]1C [AZD4625, 1-[(6aS,9R)-3-chloro-1-fluoro-2-(2-fluoro-6-hydroxyphenyl)-9-methyl-5,6,6a,7,9,10-hexahydro-8H-pyrazino[1′,2′:5,6][1,5]oxazocino[4,3,2-de]quinazolin-8-yl]prop-2-en-1-one]				delayed tumor growth	extended survival rate	most tumors ultimately returned	tumor regression	
C=CC(=O)N1CCN2Cc3cc(C#CC)c(-c4c(O)cccc4Cl)c(F)c3OC[C@H]2C1 [Compound of Formula IV, 1-[(12aR)-9-(2-chloro-6-hydroxyphenyl)-10-fluoro-8-(prop-1-yn-1-yl)-3,4,12,12a-tetrahydro-6H-pyrazino[2,1-c][1,4]benzoxazepin-2(1H)-yl]prop-2-en-1-one]							tumor regression	8 out of 9
C[C@@H]1COCCN1c1cc(C2([S@](C)(=N)=O)CC2)nc(-c2ccnc3[nH]ccc23)n1 [AZD6738, 4-{4-[(3R)-3-methylmorpholin-4-yl]-6-[1-((R)—S-methylsulfonimidoyl)cyclopropyl]pyrimidin-2-yl}-1H-pyrrolo[2,3-b]pyridine]		no or weak activity		delayed tumor growth	extended survival rate	most tumors ultimately returned		
